The METLIN SMRT retention time set (Domingo-Almenara et al. 2019)

Test: gradient 5% acetonitrile 3 min, to 50% in 2 min, to 85% in 15 min, held 3 min, 100 µL/min
Conditions: column: Zorbax Extend-C18 2.1 x 50 mm; eluents: water / acetonitrile, 0.1% formic acid
Outline: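 Using water and acetonitrile that each contained 0.1% formic acid, mixtures of ~100 pure standards were separated at 100 μL/min on a Zorbax Extend-C18 column (2.1 × 50 mm, 1.8 μm). The HPLC fed a quadrupole time-of-flight mass spectrometer working in positive and negative ionization mode, with dead and dwell volumes of 40 μL and 900 μL. Data were acquired over 3 months. Retention time was read from computationally picked adduct peaks after manual inspection of each.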

Work on `CC(C)CNC(=O)C1CC(=O)N(c2ccc3c(c2)CCN3C(=O)C2CC2)C1` (stereo not given) yielded an RP-LC retention time of 698 s.

Molecule `CCOc1ccccc1CNC(=O)CCc1c(-c2ccc(Br)cc2)nc2ccccn12` has an RP-LC retention time of 744 s.

`CCCn1cnc2cc(-c3noc(C(C)NS(=O)(=O)c4ccc(C)cc4)n3)ccc21` (stereo not given) showed an RP-LC retention time of 731 s.

Work on `Cc1c(C2CCN(C(=O)c3ccc4c(c3)OCO4)CC2)noc1N` yielded an RP-LC retention time of 663 s.

Molecule `COc1ccc(-c2nc3ncccn3c2NCc2ccc(F)cc2)cc1OC` has an RP-LC retention time of 692 s.

`O=C(CCn1cnc2cc(-c3noc(/C=C/c4ccccc4Cl)n3)ccc21)N1CCOCC1` showed an RP-LC retention time of 794 s.

For `COc1ccc(C(=O)Nc2ccc(-c3cn4ccc(C)nc4n3)cc2)cc1`, the RP-LC retention time was 632 s.

With `Cn1c(=O)c2ccn(CC(=O)N3CCC(Cc4ccccc4)CC3)c2n(C)c1=O` the RP-LC retention time was 782 s.

`O=C(NCCCN1CCCC1)c1ccc2c(c1)nnn2Cc1ccccc1` gave an RP-LC retention time of 628 s.

Molecule `CC(=O)N1CCN(c2nc3c(s2)CC(C(=O)NCc2ccc(F)cc2F)CC3)CC1` (stereo not given) has an RP-LC retention time of 544 s.

Work on `CC(C)c1ccc(NC(=O)C2CCN(S(C)(=O)=O)c3cc(Cl)ccc3O2)cc1` (stereo not given) yielded an RP-LC retention time of 1110 s.

In the case of `CCOCCCNC(=O)c1ccc2nc(CCc3ccc(NC(C)=O)cc3)[nH]c2c1`, the RP-LC retention time is reported as 589 s.

In the case of `COc1ccc2c(CCNC(=O)c3cccs3)c[nH]c2c1`, the RP-LC retention time is reported as 764 s.

Molecule `CCc1nnc2nc(N3CCN(C(=O)c4nccc5ccccc45)CC3)cc(C)n12` has an RP-LC retention time of 559 s.

For `O=C(NCc1csc(C2CCN(C(=O)c3ccc(F)cc3F)CC2)n1)C1CCC1`, the RP-LC retention time was 729 s.

Work on `CC(C)Cc1ccc(S(=O)(=O)N2C[C@@H](F)C[C@H]2C(=O)N2CCCCC2)cc1` yielded an RP-LC retention time of 983 s.

With `O=C(CN1C(=O)CCc2cc(Br)ccc21)NCc1ccccc1` the RP-LC retention time was 784 s.

`Cc1noc(C2CN(C(=O)NCc3cccc(F)c3)CC23CCOCC3)n1` (stereo not given) gave an RP-LC retention time of 706 s.

`O=C(Nc1ccccc1)N1CCC(OCc2ccccc2)C1` (stereo not given) showed an RP-LC retention time of 837 s.

Molecule `O=C(c1cccs1)N1CCn2c(nnc2-c2ccccc2)C1` has an RP-LC retention time of 656 s.

With `CCOc1ccccc1N1CCN(c2cc(C(=O)O)c3cc(NC(=O)CC)ccc3n2)CC1` the RP-LC retention time was 634 s.

For `O=C(Nc1ccc(F)cc1)c1c(O)c2cccnc2n(-c2cccc(F)c2)c1=O`, the RP-LC retention time was 1220 s.

Molecule `O=C(CCS(=O)(=O)c1ccccc1)Nc1nc(-c2ccccc2)cs1` has an RP-LC retention time of 1120 s.

For `O=C(CCCSc1ccc(NC(=O)C2CC2)nn1)NCc1ccccc1Cl`, the RP-LC retention time was 754 s.

`Cc1ccc2ncn(C3CCN(C(=O)Nc4cc(Cl)ccc4C)CC3)c(=O)c2c1` showed an RP-LC retention time of 911 s.

`COc1ccc(-n2c(=O)c(C(=O)NC3CCCCC3)c(O)c3cccnc32)cc1` showed an RP-LC retention time of 1300 s.

For `Cc1cc(C)cc(Nc2nc3ccncc3n(C(C)C)c2=O)c1`, the RP-LC retention time was 745 s.

`COc1ccc(-c2noc(-c3nc(C)no3)n2)cc1` showed an RP-LC retention time of 920 s.

`Cc1nc(Nc2ncc3c(n2)CC(c2ccc(F)cc2)CC3=O)nc2c(C)cccc12` (stereo not given) showed an RP-LC retention time of 746 s.

With `CCc1nc2nc3c(cn2n1)C(=O)CC(C)(C)C3` the RP-LC retention time was 693 s.

With `CCCNC(=O)c1cc2c(-c3cccs3)nn(-c3ccccc3)c2n1CC` the RP-LC retention time was 1100 s.

Work on `O=C(Cn1cncc(-c2nc(-c3ccccc3)cs2)c1=O)N1CCCC1` yielded an RP-LC retention time of 789 s.

With `CCCNS(=O)(=O)c1cc(-c2nnc(-c3ccccc3)o2)ccc1F` the RP-LC retention time was 939 s.

Work on `COc1ccc(CNC(=O)c2cc(NC(C)=O)cc3nc(C)ccc23)cc1OC` yielded an RP-LC retention time of 575 s.

Work on `CCc1cc(=O)n(CC(=O)Nc2ccccc2Cl)c(N2CCOCC2)n1` yielded an RP-LC retention time of 830 s.

With `COC(=O)c1ccc(C(=O)NCC2(O)CCOCC2)cc1` the RP-LC retention time was 584 s.

Work on `O=C(Nc1ccccc1C(F)(F)F)c1ccc(N2CCCC2)nn1` yielded an RP-LC retention time of 868 s.

`CCNC(=O)C1Cn2cccc2C(=O)N1C` (stereo not given) showed an RP-LC retention time of 569 s.

Molecule `CCCCN1C(=O)C(NC(=O)c2ccccc2OC)(C(F)(F)F)C(C(C)=O)=C1C` (stereo not given) has an RP-LC retention time of 976 s.

`Cc1csc(-c2cc(S(=O)(=O)NC3CC3)c(C)n2C)n1` gave an RP-LC retention time of 809 s.

Work on `COc1nccnc1N1CCC(NC(=O)COc2ccc(F)cc2)C1` (stereo not given) yielded an RP-LC retention time of 726 s.

For `CCN1C(=O)C(C)(C(=O)NCc2cccc(C)c2)Oc2cccnc21` (stereo not given), the RP-LC retention time was 744 s.

With `Cn1cnc2c(C(=O)NCc3ccco3)nn(-c3ccc(Cl)cc3)c2c1=O` the RP-LC retention time was 834 s.

For `CC(C)Cn1c(CC2CCN(C(=O)COc3ccccc3)C2)nc2cccnc21` (stereo not given), the RP-LC retention time was 672 s.

Molecule `Cc1nnc(-c2ccc3ccn(CC(=O)NCc4ccc(N(C)C)cc4)c3c2)o1` has an RP-LC retention time of 632 s.

Molecule `Cc1noc(/C=C/c2ccc(F)cc2F)c1S(=O)(=O)N1CCC(C(=O)Nc2nccs2)CC1` has an RP-LC retention time of 1050 s.

In the case of `COc1ccccc1-c1noc(Cn2c(=O)n(Cc3ccc(F)cc3)c(=O)c3sccc32)n1`, the RP-LC retention time is reported as 1020 s.

Molecule `O=C(Cn1c(=O)cnc2cc(C(=O)NC3CC3)ccc21)Nc1ccccc1C(F)(F)F` has an RP-LC retention time of 646 s.

`Cc1nc2cc(N3CC(C(=O)Nc4ccc(C)c(C)c4)CC3=O)ccc2o1` (stereo not given) showed an RP-LC retention time of 614 s.

`Cc1cccc(N2CCN(c3ccc4nnc(CCc5nc(-c6ccncc6)no5)n4n3)CC2)c1` gave an RP-LC retention time of 846 s.

Work on `O=C(NCc1cccnc1-c1ccc(F)cc1)c1cccc(Br)c1` yielded an RP-LC retention time of 734 s.

For `CCOC(=O)c1csc(NC(=O)C2CCCN2S(C)(=O)=O)n1` (stereo not given), the RP-LC retention time was 649 s.

For `CCOc1ccc(NC(=O)CSc2ccc(S(=O)(=O)c3ccccc3)nn2)cc1`, the RP-LC retention time was 906 s.

Work on `O=C(Nc1ccc(Br)cc1F)Nc1c(-c2ccc(F)cc2)nc2ccccn12` yielded an RP-LC retention time of 744 s.

`Fc1ccc(CN2CCc3nc(N4CCOCC4)ncc3C2)cc1` gave an RP-LC retention time of 608 s.

In the case of `Cc1cccc(CN2CCCn3nc(C(=O)NC(C)Cc4ccco4)cc3C2=O)c1` (stereo not given), the RP-LC retention time is reported as 919 s.

`COCCNC(=O)c1cc2c(s1)CCN(C(C)=O)C2` showed an RP-LC retention time of 588 s.

Molecule `Cc1ccccc1-c1noc(-c2nn(-c3ccc(Cl)cc3)ccc2=O)n1` has an RP-LC retention time of 1010 s.

For `Cc1ccc(C)c(CNC(=O)C2CCN(c3cnc4nccnc4c3)CC2)c1`, the RP-LC retention time was 722 s.

Work on `O=C(Cc1csc2nc(-c3cccc(Cl)c3)cn12)Nc1ccc(F)cc1F` yielded an RP-LC retention time of 942 s.

`COCCc1noc(C2Cc3ccccc3N2C(=O)Nc2cc(C)cc(C)c2)n1` (stereo not given) gave an RP-LC retention time of 968 s.

`COc1ccc(NC(=O)N2CCC3(CC2)N=C(c2cccc(Cl)c2)C(=O)N3)c(OC)c1` gave an RP-LC retention time of 856 s.

Molecule `CCn1ccc2sc(C)c(C(=O)NCC3CCCCC3)c2c1=O` has an RP-LC retention time of 884 s.

Work on `COc1ccc(Cl)cc1NC(=O)N1CCCC(C)(C(=O)NCc2ccccc2C)C1` (stereo not given) yielded an RP-LC retention time of 1070 s.

Work on `COc1ccc(NC(=O)CSc2cc(N3CCN(c4ccccc4F)CC3)ncn2)cc1` yielded an RP-LC retention time of 1010 s.

`CCc1ccc(NC(=O)C2CCN(S(=O)(=O)c3cc(-c4noc(C5CC5)n4)cs3)CC2)cc1` gave an RP-LC retention time of 1100 s.

Work on `O=C(CN1C(=O)C2CCCCN2c2ccc(C(=O)N3CCCC3)cc21)Nc1ccncc1` (stereo not given) yielded an RP-LC retention time of 622 s.

For `CCC(=O)Nc1ccc(CCc2nc3ccc(C(=O)NCCC(C)C)cc3[nH]2)cc1`, the RP-LC retention time was 645 s.

Work on `O=C(CSc1ccncc1)N1CC2CN(S(=O)(=O)c3cccc(F)c3)CC(C1)O2` yielded an RP-LC retention time of 600 s.

Molecule `Cc1cccc(N2C(=O)CN(CCCc3ccccc3)[C@H]3CS(=O)(=O)C[C@H]32)c1` has an RP-LC retention time of 871 s.

For `CC1CCN(CCNC(=O)C2CCN(S(=O)(=O)c3ccc4c(c3)sc(=O)n4C)CC2)CC1`, the RP-LC retention time was 622 s.

With `Cc1csc(-n2nc(C)c(CC(=O)Nc3ccc(F)cc3)c2C)n1` the RP-LC retention time was 950 s.

Molecule `Cc1ccc(OCc2nc3c4ccccc4ncn3n2)cc1` has an RP-LC retention time of 934 s.

For `CC(C)(C)C(=O)N1CCC(C(=O)N[C@@H]2CCCC[C@H]2NC(=O)c2ccc(F)cc2)CC1`, the RP-LC retention time was 698 s.

Molecule `Cc1c(CNCc2ccccn2)c(C(=O)O)c(C)n1Cc1ccc(F)cc1` has an RP-LC retention time of 670 s.

For `CC(=O)N1CCc2cc(N3CC(C(=O)NC(C)c4ccccn4)CC3=O)ccc21` (stereo not given), the RP-LC retention time was 904 s.

`CC(C)c1ccc(NC(=O)C(=O)NCC2(CO)CC2)cc1` gave an RP-LC retention time of 797 s.

For `COc1ccc(S(=O)(=O)N2CC3CN(C(=O)C(C)Oc4ccccc4)CC(C2)O3)cc1` (stereo not given), the RP-LC retention time was 844 s.

In the case of `Cc1noc(C2(NC(=O)c3ccccn3)CCCCC2)n1`, the RP-LC retention time is reported as 766 s.

`CC(C)n1nc(CNC(=O)c2ccccn2)c2ccccc21` gave an RP-LC retention time of 874 s.

Work on `CCOC(=O)c1ccc2nc(NC(=O)c3ccco3)sc2c1` yielded an RP-LC retention time of 830 s.

For `CCn1cc(C(=O)Nc2cccc(C)c2C)c2cccnc21`, the RP-LC retention time was 854 s.

Work on `Cc1ccc(C)c(CNC(=O)C2CCc3nc(N4CCOCC4)ncc3C2)c1` (stereo not given) yielded an RP-LC retention time of 888 s.

For `COc1ccc(N2CC(c3noc(-c4ccc(C)c(C)c4)n3)CC2=O)cc1OC` (stereo not given), the RP-LC retention time was 983 s.

`COc1ccc(-c2nnc(COc3ccc(NC(=O)c4ccc(C)s4)cc3)o2)cc1` gave an RP-LC retention time of 921 s.

With `Cn1nccc1C(=O)NCc1ccc(-c2nc(-c3ccccc3)no2)s1` the RP-LC retention time was 932 s.

Work on `CCCCCCCCN[C@H](C)[C@@H](O)c1ccc(SC(C)C)cc1` yielded an RP-LC retention time of 1030 s.

With `CCC(=O)Nc1ccc2c(c1)Sc1ncccc1C(=O)N2CC` the RP-LC retention time was 655 s.

Molecule `O=C1NCCCCCCN(C(=O)c2ccsc2)[C@H]2CCC[C@@H]12` has an RP-LC retention time of 733 s.

Work on `CCn1c(=O)c2cc(C(=O)Nc3cccc(C(=O)OC)c3)nn2c2ccccc21` yielded an RP-LC retention time of 977 s.
